Here are results for 23 molecules from ChEMBL document CHEMBL2390885, “Discovery of pyrido[2,3-d]pyrimidine-based inhibitors of HCV NS5A” (Bioorg Med Chem Lett, 2013).

In experiment [1] the test system is Hepatitis C virus. Description: Antiviral activity against Hepatitis C virus genotype 1b by replicon assay. Type of experiment: functional, organism-based, Hepacivirus hominis.
Experiment [2] deals with Hepatitis C virus. The experiment is described as follows: Antiviral activity against Hepatitis C virus genotype 1a by replicon assay. Type of experiment: functional, organism-based, Hepacivirus hominis. The note with it: subtype 1a. In general terms: A replicon is a self-replicating genome or part of one, used to study replication in cells.

Molecules are shown by their SMILES. pEC50: −log10 of the molar value.

As to `CC(C)c1ccc2c(Nc3cc(C(=O)N[C@@H]4CCc5ccccc54)ccc3Sc3ccc(N)cc3)ncnc2n1`, the pEC50 (in general, the negative decadic logarithm of the EC50, by convention in mol/L) in experiment [1] is 7.89; in experiment [2] it was 7.80.

`CC(C)c1ccc2c(Nc3cc(C(=O)N[C@H](CO)c4ccccc4)ccc3Sc3ccc(N)cc3)ncnc2n1`: the negative-log EC50 (pEC50) is 6.63 in experiment [1] and 5.52 in experiment [2].

Regarding `C[C@H](NC(=O)c1ccc(Sc2ccc(N)cc2)c(Nc2ncnc3nc(C(F)(F)F)ccc23)c1)c1ccccc1`, the pEC50 in experiment [1] was 6.60; in experiment [2], 6.70.

As to `CC(C)c1ccc2c(Nc3cc(C(=O)N[C@@H](C)c4ccccc4)ccc3Oc3ccc(N)cc3)ncnc2n1`, the results for the pEC50 in experiment [1] and in experiment [2] were 6.10 and 5.64, respectively.

On to `CC(C)c1ccc2c(Nc3cc(C(=O)N[C@H](CCO)c4ccccc4)ccc3Sc3ccc(N)cc3)ncnc2n1`, for which the values for the pEC50 in experiment [1] and in experiment [2] were 6.46 and 5.49, respectively.

Turning to `CC(C)c1ccc2c(Nc3cc(C(=O)N[C@@H](CO)c4ccccc4)ccc3Sc3ccc(N)cc3)ncnc2n1`, the pEC50 in experiment [1] was 6.50; in experiment [2], 5.34.

On to `CC(C)c1ccc2c(Nc3cc(C(=O)NC4(c5ccccc5)CC4)ccc3Sc3ccc(N)cc3)ncnc2n1`, for which the negative logarithm of the EC50 (pEC50) in experiment [1] is 6.15; in experiment [2] it was 5.97.

As to `CC(C)c1ccc2c(Nc3cc(C(=O)N[C@@H](CCO)c4ccccc4)ccc3Sc3ccc(N)cc3)ncnc2n1`, the pEC50 in experiment [1] was 6.62; in experiment [2], 5.83.

On to `CC(C)c1ccc2c(Nc3cc(C(=O)N[C@H](C)c4ccccc4)ccc3Sc3ccc(N)cc3)ncnc2n1`, for which the negative logarithm of the EC50 (pEC50) was 7.00 in experiment [1] and 6.74 in experiment [2].

With `CC(C)c1ccc2c(Nc3cc(C(=O)N[C@@H](C)c4ccccc4C(F)(F)F)ccc3Sc3ccc(N)cc3)ncnc2n1`, the negative-log EC50 (pEC50) was 7.70 in experiment [1] and 6.43 in experiment [2].

Consider `CC(C)c1ccc2c(Nc3cc(C(=O)NC(C)c4ccccn4)ccc3Sc3ccc(N)cc3)ncnc2n1` (stereo unspecified), for which the figures for the pEC50 in experiment [1] and in experiment [2] were 6.79 and 6.04, respectively.

For the molecule `CC(C)c1ccc2c(Nc3cc(C(=O)N[C@@H](C)c4ccc(F)cc4)ccc3Sc3ccc(N)cc3)ncnc2n1`, the pEC50 in experiment [1] is 8.70; in experiment [2], 8.00.

Turning to `CC(C)c1ccc2c(Nc3cc(C(=O)NC(C)(C)c4ccccc4)ccc3Sc3ccc(N)cc3)ncnc2n1`, the values for the pEC50 in experiment [1] and in experiment [2] were 6.74 and 6.55, respectively.

Regarding `CC(C)c1ccc2c(Nc3cc(C(=O)NC(C)c4cccs4)ccc3Sc3ccc(N)cc3)ncnc2n1` (stereo unspecified), the values for the pEC50 in experiment [1] and in experiment [2] were 6.80 and 6.42, respectively.

Regarding `CC(C)c1ccc2c(Nc3cc(C(=O)N[C@@H](C)c4ccccc4Br)ccc3Sc3ccc(N)cc3)ncnc2n1`, the pEC50 was 7.55 in experiment [1] and 6.77 in experiment [2].

As for `COc1ccc([C@H](C)NC(=O)c2ccc(Sc3ccc(N)cc3)c(Nc3ncnc4nc(C(C)C)ccc34)c2)cc1`, the negative-log EC50 (pEC50) is 7.28 in experiment [1] and 7.05 in experiment [2].

Regarding `CC(C)c1ccc2c(Nc3cc(C(=O)NCc4ccccc4)ccc3Sc3ccc(N)cc3)ncnc2n1`, the negative logarithm of the EC50 (pEC50) is 6.89 in experiment [1] and 6.82 in experiment [2].

Turning to `CC(C)c1ccc2c(Nc3cc(C(=O)N[C@@H](C)c4ccccc4)ccc3Sc3ccc(O)cc3)ncnc2n1`, the negative logarithm of the EC50 (pEC50) was 6.92 in experiment [1] and 6.16 in experiment [2].

For the molecule `CC(C)c1ccc2c(Nc3cc(C(=O)NC(C)c4cccnc4)ccc3Sc3ccc(N)cc3)ncnc2n1` (stereo unspecified), the values for the pEC50 in experiment [1] and in experiment [2] were 6.42 and 5.85, respectively.

In the case of `CC(C)c1ccc2c(Nc3cc(C(=O)N[C@@H](C)c4cccc(C(F)(F)F)c4)ccc3Sc3ccc(N)cc3)ncnc2n1`, the pEC50 is 7.68 in experiment [1] and 6.68 in experiment [2].

For `CC[C@H](NC(=O)c1ccc(Sc2ccc(N)cc2)c(Nc2ncnc3nc(C(C)C)ccc23)c1)c1ccccc1`, the negative logarithm of the EC50 (pEC50) in experiment [1] was 7.48; in experiment [2], 7.46.

Consider `Cc1ccc2c(Nc3cc(C(=O)N[C@@H](C)c4ccccc4)ccc3Sc3ccc(N)cc3)ncnc2n1`, for which the pEC50 in experiment [1] is 6.22; in experiment [2] it was 5.92.

As to `CC(C)c1ccc2c(Nc3cc(C(=O)N[C@](C)(CO)c4ccccc4)ccc3Sc3ccc(N)cc3)ncnc2n1`, the figures for the negative-log EC50 (pEC50) in experiment [1] and in experiment [2] were 7.22 and 5.92, respectively.
